In brackets after ≈: the same amount, converted by molar mass.
Experiments:
[1] = tested on: Staphylococcus aureus X400; assay type: cell-based; settings: methicillin-resistant strain; agar dilution; 2, 5, 17, 22 median of three tests; paired values two experiments
[2] = tested on: Micrococcus luteus ATCC 9341; experiment: agar-plate disc-diffusion test; assay type: cell-based; settings: suspended in water at 1 mg/ml; 7 mm disc; 24-48 hours at 25-37° C.
[3] = tested on: Staphylococcus epidermidis EPI2; assay type: cell-based; settings: agar dilution; 2, 5, 17, 22 median of three tests; paired values two experiments
[4] = tested on: Staphylococcus aureus V41; assay type: cell-based; settings: penicillin-resistant strain; agar dilution; 2, 5, 17, 22 median of three tests; paired values two experiments
[5] = tested on: Staphylococcus aureus ATCC 6738P; experiment: agar-plate disc-diffusion test; assay type: cell-based; settings: suspended in water at 1 mg/ml; 7 mm disc; 24-48 hours at 25-37° C.
[6] = tested on: Streptococcus pneumoniae Group D X66; assay type: cell-based; settings: agar dilution; 2, 5, 17, 22 median of three tests; paired values two experiments
toxicity test (LD50) = settings: mouse, in vivo, iv, mice; administered intravenously
[7] = tested on: Streptococcus pneumoniae Park I; assay type: cell-based; settings: agar dilution; 2, 5, 17, 22 median of three tests; paired values two experiments
[8] = tested on: Streptococcus pyogenes C203; assay type: cell-based; settings: agar dilution; 2, 5, 17, 22 median of three tests; paired values two experiments
[9] = tested on: Staphylococcus epidermidis EPI1; assay type: cell-based; settings: agar dilution; 2, 5, 17, 22 median of three tests; paired values two experiments
Streptococcus Group 9960 = assay type: cell-based, Streptococcus pneumoniae; settings: agar dilution; 2, 5, 17, 22 median of three tests; paired values two experiments
[10] = tested on: Bacillus subtilis ATCC 6633; experiment: agar-plate disc-diffusion test; settings: 7 mm disc, 24-48 hours at 25-37° C.; for Size of Zone of Inhibition (mm) B. subtilis ATCC 6633, grown on minimal nutrient agar: 1 mg/ml; for Size of Zone of Inhibition (mm) Bacillus subtilis ATCC 6633: suspended in water at 1 mg/ml
Procedure: ^a Compounds were suspended in water at a concentration of 1 mg/ml; a
7 mm disc was dipped into the suspension and then placed on the agar
surface; incubation: 24-48 hours at 25-37° C.
^b Grown on minimal nutrient agar

Staphylococcus aureus = experiment: in vivo activity against experimental bacterial infection (ED50); settings: mice; two doses subcutaneously; dose protecting fifty percent of test animals
Streptococcus pyogenes = experiment: as above; settings: mice, dose protecting fifty percent of test animals; for ED50 Streptococcus pyogenes Oral: two doses orally; for ED50 Streptococcus pyogenes Subcutaneous: two doses subcutaneously
[11] = tested on: Staphylococcus aureus X1.1; assay type: cell-based; settings: agar dilution; 2, 5, 17, 22 median of three tests; paired values two experiments

SMILES	MIC Staphylococcus aureus X400 [1] [µg/mL]	Size of Zone of Inhibition (mm) Micrococcus luteus ATCC 9341 [2] [mm]	MIC Staphylococcus epidermidis EPI2 [3] [µg/mL]	MIC Staphylococcus aureus V41 [4] [µg/mL]	Size of Zone of Inhibition (mm) Staphylococcus aureus ATCC 6738P [5] [mm]	MIC Streptococcus pneumoniae Group D X66 [6] [µg/mL]	LD50 (toxicity test (LD50)) [mg/kg]	MIC Streptococcus pneumoniae Park I [7] [µg/mL]	MIC Streptococcus pyogenes C203 [8] [µg/mL]	MIC Staphylococcus epidermidis EPI1 [9] [µg/mL]	MIC Streptococcus pneumoniae Group 9960 (Streptococcus Group 9960) [µg/mL]	Size of Zone of Inhibition (mm) B. subtilis ATCC 6633, grown on minimal nutrient agar [10] [mm]	Size of Zone of Inhibition (mm) Bacillus subtilis ATCC 6633 [10] [mm]	ED50 Staphylococcus aureus Subcutaneous (Staphylococcus aureus) [mg/kg × 2]	ED50 Streptococcus pyogenes Oral (Streptococcus pyogenes) [mg/kg × 2]	ED50 Streptococcus pyogenes Subcutaneous (Streptococcus pyogenes) [mg/kg × 2]	MIC Staphylococcus aureus X1.1 [11] [µg/mL]
CCCCC=CCCCCCCCC(=O)N[C@@H](Cc1c[nH]c2ccccc12)C(=O)N[C@@H](CC(N)=O)C(=O)N[C@@H](CC(=O)O)C(=O)N[C@@H]1C(=O)NCC(=O)N[C@@H](CCCN)C(=O)N[C@@H](CC(=O)O)C(=O)N[C@H](C)C(=O)N[C@@H](CC(=O)O)C(=O)NCC(=O)N[C@H](CO)C(=O)N[C@@H]([C@H](C)CC(=O)O)C(=O)N[C@@H](CC(=O)c2ccccc2N)C(=O)O[C@@H]1C [Compound 12]	2 (≈ 1.19 µM)	20	2 (≈ 1.19 µM)	1 (≈ 0.597 µM)	22	2 (≈ 1.19 µM)	450	0.5 (≈ 0.299 µM)	0.5 (≈ 0.299 µM)	2 (≈ 1.19 µM)	1 (≈ 0.597 µM)	30	19	3.28	75	0.134	1 (≈ 0.597 µM)
CCCCCCCCCCC(=O)NCCC[C@@H]1NC(=O)CNC(=O)[C@@H](NC(=O)[C@H](CC(=O)O)NC(=O)[C@H](CC(N)=O)NC(=O)[C@H](Cc2c[nH]c3ccccc23)NC(=O)CCCCCCCCCC)[C@@H](C)OC(=O)[C@H](CC(=O)c2ccccc2N)NC(=O)[C@H]([C@H](C)CC(=O)O)NC(=O)[C@@H](CO)NC(=O)CNC(=O)[C@H](CC(=O)O)NC(=O)[C@@H](C)NC(=O)[C@H](CC(=O)O)NC1=O [Compound 17]	4 (≈ 2.22 µM)	14	8 (≈ 4.44 µM)	4 (≈ 2.22 µM)	17	8 (≈ 4.44 µM)	94	0.125 (≈ 0.0693 µM)	0.25 (≈ 0.139 µM)	8 (≈ 4.44 µM)	8 (≈ 4.44 µM)	20	13	> 35	> 200	2.85	1 (≈ 0.555 µM)

Reference: US4537717A
